Source: patent publication US20140288074A1, “FUNGICIDAL PYRAZOLES” (E I DU PONT DE NEMOURS AND COMPANY, priority 2013, published 2014)

Legend:
Format in all cases: in vivo
Botrytis cinerea = assay: Test A: preventive spray on tomato seedlings, tomato Botrytis, visual disease rating; settings: 200 ppm test suspension, Botrytis cinerea inoculated the day after spraying
Method: General protocol for preparing test suspensions for Tests A-G: the test compounds were first dissolved in acetone in an amount equal to 3% of the final volume and then suspended at the desired concentration (in ppm) in acetone and purified water (50/50 mix by volume) containing 250 ppm of the surfactant Trem® 014 (polyhydric alcohol esters). The resulting test suspensions were then used in Tests A-G. Each test was conducted in triplicate, and the results were averaged. Spraying a 200 ppm test suspension to the point of run-off on the test plants was the equivalent of a rate of 800 g/ha. Unless otherwise indicated, the rating values indicate a 200 ppm test suspension was used. (An asterisk “*” next to the rating value indicates a 40 ppm test suspension was used.) The test suspension was sprayed to the point of run-off on tomato seedlings. The following day the seedlings were inoculated with a spore suspension of Botrytis cinerea (the causal agent of tomato Botrytis) and incubated in saturated atmosphere at 20° C. for 48 h, and then moved to a growth chamber at 24° C. for 3 additional days, after which time visual disease ratings were made. Results for Tests A-G are given in Table A. In the Table, a rating of 100 indicates 100% disease control and a rating of 0 indicates no disease control (relative to the controls). A hyphen (-) indicates no test results.

Alternaria solani = assay: Test B: preventive spray on tomato seedlings, tomato early blight, visual disease rating; settings: 200 ppm test suspension, Alternaria solani inoculated the day after spraying
Method: General protocol for preparing test suspensions for Tests A-G: the test compounds were first dissolved in acetone in an amount equal to 3% of the final volume and then suspended at the desired concentration (in ppm) in acetone and purified water (50/50 mix by volume) containing 250 ppm of the surfactant Trem® 014 (polyhydric alcohol esters). The resulting test suspensions were then used in Tests A-G. Each test was conducted in triplicate, and the results were averaged. Spraying a 200 ppm test suspension to the point of run-off on the test plants was the equivalent of a rate of 800 g/ha. Unless otherwise indicated, the rating values indicate a 200 ppm test suspension was used. (An asterisk “*” next to the rating value indicates a 40 ppm test suspension was used.) The test suspension was sprayed to the point of run-off on tomato seedlings. The following day the seedlings were inoculated with a spore suspension of Alternaria solani (the causal agent of tomato early blight) and incubated in a saturated atmosphere at 27° C. for 48 h, and then moved to a growth chamber at 20° C. for 5 days, after which time visual disease ratings were made. Results for Tests A-G are given in Table A. In the Table, a rating of 100 indicates 100% disease control and a rating of 0 indicates no disease control (relative to the controls). A hyphen (-) indicates no test results.

Septoria nodorum = assay: Test C: preventive spray on wheat seedlings, Septoria glume blotch, visual disease rating; settings: 200 ppm test suspension, Septoria nodorum inoculated the day after spraying
Method: General protocol for preparing test suspensions for Tests A-G: the test compounds were first dissolved in acetone in an amount equal to 3% of the final volume and then suspended at the desired concentration (in ppm) in acetone and purified water (50/50 mix by volume) containing 250 ppm of the surfactant Trem® 014 (polyhydric alcohol esters). The resulting test suspensions were then used in Tests A-G. Each test was conducted in triplicate, and the results were averaged. Spraying a 200 ppm test suspension to the point of run-off on the test plants was the equivalent of a rate of 800 g/ha. Unless otherwise indicated, the rating values indicate a 200 ppm test suspension was used. (An asterisk “*” next to the rating value indicates a 40 ppm test suspension was used.) The test suspension was sprayed to the point of run-off on wheat seedlings. The following day the seedlings were inoculated with a spore suspension of Septoria nodorum (the causal agent of Septoria glume blotch) and incubated in a saturated atmosphere at 24° C. for 48 h, and then moved to a growth chamber at 20° C. for 9 days, after which time visual disease ratings were made. Results for Tests A-G are given in Table A. In the Table, a rating of 100 indicates 100% disease control and a rating of 0 indicates no disease control (relative to the controls). A hyphen (-) indicates no test results.

Septoria tritici = assay: Test D: preventive spray on wheat seedlings, wheat leaf blotch, visual disease rating; settings: 200 ppm test suspension, Septoria tritici inoculated the day after spraying
Method: General protocol for preparing test suspensions for Tests A-G: the test compounds were first dissolved in acetone in an amount equal to 3% of the final volume and then suspended at the desired concentration (in ppm) in acetone and purified water (50/50 mix by volume) containing 250 ppm of the surfactant Trem® 014 (polyhydric alcohol esters). The resulting test suspensions were then used in Tests A-G. Each test was conducted in triplicate, and the results were averaged. Spraying a 200 ppm test suspension to the point of run-off on the test plants was the equivalent of a rate of 800 g/ha. Unless otherwise indicated, the rating values indicate a 200 ppm test suspension was used. (An asterisk “*” next to the rating value indicates a 40 ppm test suspension was used.) The test suspension was sprayed to the point of run-off on wheat seedlings. The following day the seedlings were inoculated with a spore suspension of Septoria tritici (the causal agent of wheat leaf blotch) and incubated in saturated atmosphere at 24° C. for 48 h. and then the seedlings were moved to a growth chamber at 20° C. for 19 additional days, after which time visual disease ratings were made. Results for Tests A-G are given in Table A. In the Table, a rating of 100 indicates 100% disease control and a rating of 0 indicates no disease control (relative to the controls). A hyphen (-) indicates no test results.

[1] = test system: Puccinia recondita f. sp. tritici; assay: Test F: preventive spray on wheat seedlings, wheat leaf rust, visual disease rating; settings: 200 ppm test suspension, Puccinia recondita f. sp. tritici inoculated the day after spraying
Method: General protocol for preparing test suspensions for Tests A-G: the test compounds were first dissolved in acetone in an amount equal to 3% of the final volume and then suspended at the desired concentration (in ppm) in acetone and purified water (50/50 mix by volume) containing 250 ppm of the surfactant Trem® 014 (polyhydric alcohol esters). The resulting test suspensions were then used in Tests A-G. Each test was conducted in triplicate, and the results were averaged. Spraying a 200 ppm test suspension to the point of run-off on the test plants was the equivalent of a rate of 800 g/ha. Unless otherwise indicated, the rating values indicate a 200 ppm test suspension was used. (An asterisk “*” next to the rating value indicates a 40 ppm test suspension was used.) The test suspension was sprayed to the point of run-off on wheat seedlings. The following day the seedlings were inoculated with a spore suspension of Puccinia recondita f. sp. tritici (the causal agent of wheat leaf rust) and incubated in a saturated atmosphere at 20° C. for 24 h, and then moved to a growth chamber at 20° C. for 6 days, after which time visual disease ratings were made. Results for Tests A-G are given in Table A. In the Table, a rating of 100 indicates 100% disease control and a rating of 0 indicates no disease control (relative to the controls). A hyphen (-) indicates no test results.

[2] = test system: Blumeria graminis f. sp. tritici; assay: Test G: preventive spray on wheat seedlings, wheat powdery mildew, visual disease rating;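 note: rated 8 days after spore dust inoculation at 20 °C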; settings: 200 ppm test suspension, Blumeria graminis f. sp. tritici inoculated the day after spraying
Method: General protocol for preparing test suspensions for Tests A-G: the test compounds were first dissolved in acetone in an amount equal to 3% of the final volume and then suspended at the desired concentration (in ppm) in acetone and purified water (50/50 mix by volume) containing 250 ppm of the surfactant Trem® 014 (polyhydric alcohol esters). The resulting test suspensions were then used in Tests A-G. Each test was conducted in triplicate, and the results were averaged. Spraying a 200 ppm test suspension to the point of run-off on the test plants was the equivalent of a rate of 800 g/ha. Unless otherwise indicated, the rating values indicate a 200 ppm test suspension was used. (An asterisk “*” next to the rating value indicates a 40 ppm test suspension was used.) The test suspension was sprayed to the point of run-off on wheat seedlings. The following day the seedlings were inoculated with a spore dust of Blumeria graminis f. sp. tritici (also known as Erysiphe graminis f. sp. tritici, the causal agent of wheat powdery mildew) and incubated in a growth chamber at 20° C. for 8 days, after which time visual disease ratings were made. Results for Tests A-G are given in Table A. In the Table, a rating of 100 indicates 100% disease control and a rating of 0 indicates no disease control (relative to the controls). A hyphen (-) indicates no test results.

SMILES	Test A rating (disease control) (Botrytis cinerea)	Test B rating (disease control) (Alternaria solani)	Test C rating (disease control) (Septoria nodorum)	Test D rating (disease control) (Septoria tritici)	Test F rating (disease control) [1]	Test G rating (disease control) [2]	pest or weed control at 200 ppm (Botrytis cinerea; 120 h)	pest or weed control at 200 ppm (Septoria nodorum; Parastagonospora nodorum, 264 h)	pest or weed control at 200 ppm (Septoria tritici; Zymoseptoria tritici, 504 h)	pest or weed control at 200 ppm ([1]; 168 h)	pest or weed control at 200 ppm ([2]; 192 h)
Cc1nn(C)c(NC(C)C)c1-c1ccc(F)cc1F [Compound 1]	65%	0%	0%	0%	0%	0%					
CCCCNc1c(-c2ccc(F)cc2Br)c(C)nn1C [Compound 36]	67%		100%	50%	100%	0%					
CCCCN(CCCC)c1c(-c2ccc(F)cc2Br)c(C)nn1C [Compound 37]	0%		99%	0%	99%	0%					
Cc1nn(C)c(NC(C)C)c1-c1ccc(F)cc1Br [Compound 38]	100%		100%	46%	100%	0%					
CCN(CC)c1c(-c2ccc(F)cc2Br)c(C)nn1C [Compound 39]	0%		64%	0%	68%	0%					
Cc1nn(C)c(N2CCOCC2)c1-c1ccc(F)cc1Cl [Compound 40, 4-[4-(2-chloro-4-fluorophenyl)-1,3-dimethyl-1H-pyrazol-5-yl]morpholine]							100%	0%	100%	99%	94%
Cc1nn(C)c(N2CCCCC2)c1-c1ccc(F)cc1Cl [Compound 41]	99%		0%	88%	44%	0%					
Cc1nn(C)c(N2CCCCC2C)c1-c1ccc(F)cc1Cl (stereo not drawn) [Compound 43]	73%		0%	36%	19%	43%					
Cc1nn(C)c(NCC(C)C)c1-c1ccc(F)cc1Br [Compound 44]	0%		59%	0%	90%	0%					
COCCNc1c(-c2ccc(F)cc2Br)c(C)nn1C [Compound 45]	9%		77%	0%	68%	0%					
COCCN(CCOC)c1c(-c2ccc(F)cc2Br)c(C)nn1C [Compound 46]	0%		86%	0%	68%	13%					
CCCCNc1c(-c2c(F)cc(F)cc2F)c(C)nn1C [Compound 47]	30%		95%	57%	98%	0%					
Cc1nn(C)c(NCC2CC2)c1-c1ccc(F)cc1Br [Compound 48]	98%		68%	71%	89%	0%					
Cc1nn(C)c(NC(C)C)c1-c1c(F)cc(F)cc1F [Compound 49]	40%		98%	0%	98%	0%					
CCN(CC)c1c(-c2c(F)cc(F)cc2F)c(C)nn1C [Compound 50]	38%		0%	0%	74%	0%					
COCCNc1c(-c2c(F)cc(F)cc2F)c(C)nn1C [Compound 54]	0%		97%	92%	95%	0%					
